From patent US10233177B2, “TRPV1 vanilloid receptor antagonists with a bicyclic portion” (Serentrix LLC, priority 2010, dated 2019)
Like-named read-outs stand apart in the source and are kept apart here.

Target: TRPV1 (Rattus norvegicus (Rat), UniProt O35433)
Assay: Ca2+ fluorescence measurements in cultured rat dorsal root ganglia neurons (capsaicin-induced calcium uptake)
Type: cell-based
Details: DRG neuron, rat DRG neurons
[1] = 300 nM, read-out: abolition of capsaicin response at 300 nM
[2] = Table 1, formula IA-C, 300 nM against calcium uptake induced by 30 nM capsaicin, read-out: % inhibition at 300 nM
[3] = capsaicin-induced calcium uptake, read-out: inhibition of the calcium uptake
[4] = Table 2, formula ID-E, 300 nM against calcium uptake induced by 30 nM capsaicin, read-out: % inhibition at 300 nM
[5] = Table 3, formula IF-H, 300 nM against calcium uptake induced by 30 nM capsaicin, read-out: % inhibition at 300 nM

Sequence of TRPV1 (O35433 whole entry): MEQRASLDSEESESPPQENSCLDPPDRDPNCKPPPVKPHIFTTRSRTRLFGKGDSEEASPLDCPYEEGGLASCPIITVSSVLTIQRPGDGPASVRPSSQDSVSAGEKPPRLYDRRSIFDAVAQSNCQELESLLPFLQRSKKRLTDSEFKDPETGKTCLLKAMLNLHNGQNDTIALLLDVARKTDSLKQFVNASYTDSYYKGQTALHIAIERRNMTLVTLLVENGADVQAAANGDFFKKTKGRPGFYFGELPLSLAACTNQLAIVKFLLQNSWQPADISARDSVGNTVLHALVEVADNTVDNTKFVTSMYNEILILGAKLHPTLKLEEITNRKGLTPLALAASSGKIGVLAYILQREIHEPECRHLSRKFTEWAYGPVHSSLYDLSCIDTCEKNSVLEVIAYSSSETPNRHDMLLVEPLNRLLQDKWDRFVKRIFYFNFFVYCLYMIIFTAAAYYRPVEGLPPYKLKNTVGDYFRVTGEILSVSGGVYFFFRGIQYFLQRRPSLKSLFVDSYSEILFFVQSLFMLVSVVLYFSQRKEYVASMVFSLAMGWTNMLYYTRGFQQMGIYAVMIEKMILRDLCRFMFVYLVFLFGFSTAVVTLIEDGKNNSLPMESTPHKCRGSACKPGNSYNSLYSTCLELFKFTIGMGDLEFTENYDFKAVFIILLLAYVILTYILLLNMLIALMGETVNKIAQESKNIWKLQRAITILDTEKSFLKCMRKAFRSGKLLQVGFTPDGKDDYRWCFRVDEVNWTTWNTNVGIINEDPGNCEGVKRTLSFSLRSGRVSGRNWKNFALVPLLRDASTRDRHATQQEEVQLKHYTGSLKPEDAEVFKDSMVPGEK

| inhibition at 0.3 µM [2] [%] | inhibition at 0.3 µM [5] [%] | SMILES | further results |
| --- | --- | --- | --- |
| 100 |  | O=C1COc2c(cccc2NC(=O)NCc2ccc(C(F)(F)F)cc2)N1 [Example 45, 1-(4-(trifluoromethyl)benzyl)-3-(3,4-dihydro-3-oxo-2H-benzo[b][1,4]oxazin-8-yl)urea] | inhibition at 0.3 µM [1]: ~100%; inhibition at 0.3 µM [3]: > 80% |
| 52 |  | CN(C)c1cc(Cl)ccc1CNC(=O)Nc1cccc2c1OCC(=O)N2 [Example 50, 1-(4-chloro-2-(dimethylamino)benzyl)-3-(3,4-dihydro-3-oxo-2H-benzo[b][1,4]oxazin-8-yl)urea] |  |
| 98 |  | O=C1COc2c(cccc2NC(=O)NCc2ccc(Cl)cc2N2CCCCC2)N1 [Example 52, 1-(4-chloro-2-(piperidin-1-yl)benzyl)-3-(3,4-dihydro-3-oxo-2H-benzo[b][1,4]oxazin-8-yl)urea] | inhibition at 0.3 µM [1]: ~100% |
| 90 |  | Cc1ccc(CNC(=O)Nc2cccc3c2OCC(=O)N3)c(N2CCCCC2)c1 [Example 53, 1-(4-methyl-2-(piperidin-1-yl)benzyl)-3-(3,4-dihydro-3-oxo-2H-benzo[b][1,4]oxazin-8-yl)urea] | inhibition at 0.3 µM [1]: ~100%; inhibition at 0.3 µM [3]: > 80% |
| 55 |  | O=C1COc2c(cccc2NC(=O)NCc2ccc(Cl)nc2)N1 [Example 54, 1-((6-chloropyridin-3-yl)methyl)-3-(3,4-dihydro-3-oxo-2H-benzo[b][1,4]oxazin-8-yl)urea] |  |
|  |  | O=C(Cc1ccc(C(F)(F)F)cc1)Nc1cccc2[nH]c(=O)[nH]c12 [Example 55, 2-(4-(trifluoromethyl)phenyl)-N-(2,3-dihydro-2-oxo-1H-benzo[d]imidazol-4-yl)acetamide] | inhibition at 0.3 µM [4]: 10% |
|  |  | O=C(Cc1ccc(C(F)(F)F)cc1)Nc1cccc2oc(=O)[nH]c12 [Example 56, 2-(4-(trifluoromethyl)phenyl)-N-(2,3-dihydro-2-oxobenzo[d]oxazol-4-yl)acetamide] | inhibition at 0.3 µM [4]: 31% |
|  |  | O=C(Cc1ccc(C(F)(F)F)cc1)Nc1cccc2[nH]c(=O)oc12 [Example 57, 2-(4-(trifluoromethyl)phenyl)-N-(2,3-dihydro-2-oxobenzo[d]oxazol-7-yl)acetamide] | inhibition at 0.3 µM [4]: 7% |
|  |  | O=C(Cc1ccc(C(F)(F)F)cc1)Nc1cccc2c1NC(=O)CO2 [Example 58, 2-(4-(trifluoromethyl)phenyl)-N-(3,4-dihydro-3-oxo-2H-benzo[b][1,4]oxazin-5-yl)acetamide] | inhibition at 0.3 µM [4]: 43% |
|  | 5 | O=C(NCc1ccc(C(F)(F)F)cc1)c1cccc2oc(=O)[nH]c12 [Example 59, N-(4-(trifluoromethyl)benzyl)-2,3-dihydro-2-oxobenzo[d]oxazole-4-carboxamide] |  |
|  | 8 | O=C(NCc1ccc(C(F)(F)F)cc1N1CCCCC1)c1cccc2oc(=O)[nH]c12 [Example 60, N-(4-(trifluoromethyl)-2-(piperidin-1-yl)benzyl)-2,3-dihydro-2-oxobenzo[d]oxazole-4-carboxamide] |  |
|  | 15 | O=C(NCc1ccc(C(F)(F)F)cc1N1CCOCC1)c1cccc2oc(=O)[nH]c12 [Example 61, N-(4-(trifluoromethyl)-2-morpholinobenzyl)-2,3-dihydro-2-oxobenzo[d]oxazole-4-carboxamide] |  |
|  | 8 | O=C1COc2cccc(C(=O)NCc3ccc(C(F)(F)F)cc3)c2N1 [Example 62, N-(4-(trifluoromethyl)benzyl)-3,4-dihydro-3-oxo-2H-benzo[b][1,4]oxazine-5-carboxamide] |  |
|  | 79 | O=C1COc2cccc(C(=O)NCc3ccc(C(F)(F)F)cc3N3CCCCC3)c2N1 [Example 63, N-(4-(trifluoromethyl)-2-(piperidin-1-yl)benzyl)-3,4-dihydro-3-oxo-2H-benzo[b][1,4]oxazine-5-carboxamide] |  |
|  | 65 | O=C1COc2c(cccc2C(=O)NCc2ccc(C(F)(F)F)cc2N2CCCCC2)N1 [Example 64, N-(4-(trifluoromethyl)-2-(piperidin-1-yl)benzyl)-3,4-dihydro-3-oxo-2H-benzo[b][1,4]oxazine-8-carboxamide] |  |
